System: 843126-344-R-J1-PDC complex spheroid viability
Assay: Anticancer human tumor 843126-344-R-J1-PDC patient-derived melanoma cell line growth inhibition [POLQ]
Details: for IC50: curve of first compound; for viability, T/C: stronger effect = lower value; active = viability on the fitted dose curve at most 10% of control; inactive = the rest
Outline: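 Growth inhibition in 3D: complex spheroids (tumor PDC, HUVEC, MSC) treated with POLQ inhibitor combinations; where Cmax unknown, highest tested concentration 10 microM, except SN-38 at 1 microM.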

[1] = second compound 0.0316 µM, first compound 0.0316 µM
[2] = second compound 0.0316 µM, first compound 0.1 µM
[3] = second compound 0.0316 µM, first compound 0.316 µM
[4] = second compound 0.0316 µM, first compound 1 µM
[5] = second compound 0.0316 µM, first compound 3.16 µM
[6] = second compound 0.0316 µM, first compound 10 µM
[7] = second compound 0.1 µM, first compound 0.0316 µM
[8] = second compound 0.1 µM, first compound 0.1 µM
[9] = second compound 0.1 µM, first compound 0.316 µM
[10] = second compound 0.1 µM, first compound 1 µM
[11] = second compound 0.1 µM, first compound 3.16 µM
[12] = second compound 0.1 µM, first compound 10 µM
[13] = second compound 0.316 µM, first compound 0.0316 µM
[14] = second compound 0.316 µM, first compound 0.1 µM
[15] = second compound 0.316 µM, first compound 0.316 µM
[16] = second compound 0.316 µM, first compound 1 µM
[17] = second compound 0.316 µM, first compound 3.16 µM
[18] = second compound 0.316 µM, first compound 10 µM
[19] = second compound 1 µM, first compound 0.0316 µM
[20] = second compound 1 µM, first compound 0.1 µM
[21] = second compound 1 µM, first compound 0.316 µM
[22] = second compound 1 µM, first compound 1 µM
[23] = second compound 1 µM, first compound 3.16 µM
[24] = second compound 1 µM, first compound 10 µM
[25] = second compound 3.16 µM, first compound 0.0316 µM
[26] = second compound 3.16 µM, first compound 0.1 µM
[27] = second compound 3.16 µM, first compound 0.316 µM
[28] = second compound 3.16 µM, first compound 1 µM
[29] = second compound 3.16 µM, first compound 3.16 µM
[30] = second compound 3.16 µM, first compound 10 µM
[31] = second compound 10 µM, first compound 0.0316 µM
[32] = second compound 10 µM, first compound 0.1 µM
[33] = second compound 10 µM, first compound 0.316 µM
[34] = second compound 10 µM, first compound 1 µM
[35] = second compound 10 µM, first compound 3.16 µM
[36] = second compound 10 µM, first compound 10 µM
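For viability, T/C in this document: spheroids exposed to drugs for seven days before readout.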

COc1ccc([C@@H](O)c2cc(-c3ncnc4cc(N5CCOCC5)ccc34)c(F)cc2Cl)nn1 + Nc1ccc(C#CCN(C(=O)Cc2ncc(C(F)(F)F)cc2C(F)(F)F)c2ccc(F)cc2)nn1
> 10 µM: IC50 (second compound 0.0316 µM) | IC50 (second compound 0.1 µM) | IC50 (second compound 0.316 µM) | IC50 (second compound 1 µM) | IC50 (second compound 3.16 µM) | IC50 (second compound 10 µM)
inactive: viability, T/C [1] 95.5% | viability, T/C [2] 94.9% | viability, T/C [3] 87.5% | viability, T/C [4] 87.9% | viability, T/C [5] 80.9% | viability, T/C [6] 62.9% | viability, T/C [7] 95.7% | viability, T/C [8] 95.8% | viability, T/C [9] 103% | viability, T/C [10] 82.9% | viability, T/C [11] 96% | viability, T/C [12] 68.1% | viability, T/C [13] 86% | viability, T/C [14] 90.3% | viability, T/C [15] 87% | viability, T/C [16] 85.1% | viability, T/C [17] 79.5% | viability, T/C [18] 80.7% | viability, T/C [19] 88.1% | viability, T/C [20] 102% | viability, T/C [21] 91.8% | viability, T/C [22] 88.5% | viability, T/C [23] 74.5% | viability, T/C [24] 64% | viability, T/C [25] 100% | viability, T/C [26] 99.3% | viability, T/C [27] 92% | viability, T/C [28] 73.6% | viability, T/C [29] 77.8% | viability, T/C [30] 64.6% | viability, T/C [31] 80.2% | viability, T/C [32] 94.8% | viability, T/C [33] 85.4% | viability, T/C [34] 82.7% | viability, T/C [35] 78.2% | viability, T/C [36] 62.6%

COc1cc2cc(C(=O)CCC(=O)O)sc2cc1OC + Cc1cccc(N(C)C(=O)C2C(O)CCN2c2nc(C)cc(C(F)(F)F)c2C#N)c1
inactive: viability, T/C [1] 95.8% | viability, T/C [2] 83.5% | viability, T/C [3] 95.1% | viability, T/C [4] 98.8% | viability, T/C [5] 96.4% | viability, T/C [6] 92.4% | viability, T/C [7] 91.1% | viability, T/C [8] 91.4% | viability, T/C [9] 84.9% | viability, T/C [10] 83.7% | viability, T/C [11] 94.4% | viability, T/C [12] 85.2% | viability, T/C [13] 97.2% | viability, T/C [14] 92.4% | viability, T/C [15] 90.1% | viability, T/C [16] 96.6% | viability, T/C [17] 88.8% | viability, T/C [18] 89% | viability, T/C [19] 81.7% | viability, T/C [20] 84.2% | viability, T/C [21] 88.1% | viability, T/C [22] 93.5% | viability, T/C [23] 91.8% | viability, T/C [24] 86.4% | viability, T/C [25] 89.9% | viability, T/C [26] 83% | viability, T/C [27] 98.5% | viability, T/C [28] 98.4% | viability, T/C [29] 96.3% | viability, T/C [30] 82.3% | viability, T/C [31] 95.7% | viability, T/C [32] 90.6% | viability, T/C [33] 92.1% | viability, T/C [34] 89.7% | viability, T/C [35] 90.9% | viability, T/C [36] 86.1%
> 10 µM: IC50 (second compound 0.0316 µM) | IC50 (second compound 0.1 µM) | IC50 (second compound 0.316 µM) | IC50 (second compound 1 µM) | IC50 (second compound 3.16 µM) | IC50 (second compound 10 µM)

COc1cccc(OCCCN)c1-c1cc(Nc2cnc(C#N)cn2)n[nH]1 + Nc1ccc(C#CCN(C(=O)Cc2ncc(C(F)(F)F)cc2C(F)(F)F)c2ccc(F)cc2)nn1
0.0542 µM: IC50 (second compound 10 µM)
0.0919 µM: IC50 (second compound 0.316 µM)
0.0256 µM: IC50 (second compound 3.16 µM)
0.0971 µM: IC50 (second compound 1 µM)
0.0578 µM: IC50 (second compound 0.0316 µM)
0.0851 µM: IC50 (second compound 0.1 µM)
inactive: viability, T/C (second compound 0.0316 µM, first compound 0.00316 µM) 92% | viability, T/C (second compound 0.0316 µM, first compound 0.01 µM) 78.5% | viability, T/C [1] 53.1% | viability, T/C [2] 47.3% | viability, T/C [3] 40% | viability, T/C [4] 35.5% | viability, T/C (second compound 0.1 µM, first compound 0.00316 µM) 91.9% | viability, T/C (second compound 0.1 µM, first compound 0.01 µM) 71.2% | viability, T/C [7] 53% | viability, T/C [8] 53.9% | viability, T/C [9] 45.1% | viability, T/C [10] 32.1% | viability, T/C (second compound 0.316 µM, first compound 0.00316 µM) 92.9% | viability, T/C (second compound 0.316 µM, first compound 0.01 µM) 72.5% | viability, T/C [13] 59.6% | viability, T/C [14] 50% | viability, T/C [15] 42.2% | viability, T/C [16] 35.1% | viability, T/C (second compound 1 µM, first compound 0.00316 µM) 89.8% | viability, T/C (second compound 1 µM, first compound 0.01 µM) 72.6% | viability, T/C [19] 59.6% | viability, T/C [20] 49.2% | viability, T/C [21] 43.8% | viability, T/C [22] 29.3% | viability, T/C (second compound 3.16 µM, first compound 0.00316 µM) 87.2% | viability, T/C (second compound 3.16 µM, first compound 0.01 µM) 74.6% | viability, T/C [25] 44.3% | viability, T/C [26] 41.2% | viability, T/C [27] 38.6% | viability, T/C [28] 38.8% | viability, T/C (second compound 10 µM, first compound 0.00316 µM) 84.8% | viability, T/C (second compound 10 µM, first compound 0.01 µM) 66.8% | viability, T/C [31] 51.9% | viability, T/C [32] 45.8% | viability, T/C [33] 42.8% | viability, T/C [34] 30.4%

CC1COCCN1c1cc(C2(O)CC3CCC(C2)O3)c2cnn(-c3ccn[nH]3)c2n1 (stereo not drawn) + Nc1ccc(C#CCN(C(=O)Cc2ncc(C(F)(F)F)cc2C(F)(F)F)c2ccc(F)cc2)nn1
0.39 µM: IC50 (second compound 0.0316 µM)
0.435 µM: IC50 (second compound 0.1 µM)
0.312 µM: IC50 (second compound 1 µM)
0.21 µM: IC50 (second compound 10 µM)
0.369 µM: IC50 (second compound 0.316 µM)
inactive: viability, T/C [1] 82.7% | viability, T/C [2] 65.4% | viability, T/C [3] 54.9% | viability, T/C [4] 37.2% | viability, T/C [5] 29.7% | viability, T/C [6] 20.2% | viability, T/C [7] 74.5% | viability, T/C [8] 79.2% | viability, T/C [9] 51.6% | viability, T/C [10] 37.6% | viability, T/C [11] 31.9% | viability, T/C [12] 22% | viability, T/C [13] 73.2% | viability, T/C [14] 69.9% | viability, T/C [15] 49.1% | viability, T/C [16] 36.5% | viability, T/C [17] 28% | viability, T/C [18] 17.9% | viability, T/C [19] 85.9% | viability, T/C [20] 64.7% | viability, T/C [21] 48.5% | viability, T/C [22] 38.8% | viability, T/C [23] 28.7% | viability, T/C [24] 18.7% | viability, T/C [25] 79.1% | viability, T/C [26] 70.1% | viability, T/C [27] 46.6% | viability, T/C [28] 38.6% | viability, T/C [29] 29.1% | viability, T/C [30] 19.6% | viability, T/C [31] 71.5% | viability, T/C [32] 56.7% | viability, T/C [33] 47.8% | viability, T/C [34] 33% | viability, T/C [35] 26.7% | viability, T/C [36] 20.1%
0.344 µM: IC50 (second compound 3.16 µM)
